Experiment [1] can be described thus: Inhibition of porcine Pancreatic elastase without pre-incubation.
Assay in experiment [2]: as above
This is another data set of the same source.

Assay in experiment [3]: as above
This is another data set of the same source.

Experiment [4] is described as follows: Inhibition of porcine Pancreatic elastase with 10 min pre-incubation.

Structures are written as SMILES.

Take `CC1(C)[C@H](C(=O)OCc2ccccc2)N2C(=O)[C@H](OS(=O)(=O)C(F)(F)F)[C@H]2S1(=O)=O` [(2S,5R,6S)-3,3-Dimethyl-4,4,7-trioxo-6-trifluoromethanesulfonyloxy-4lambda*6*-thia-1-aza-bicyclo[3.2.0]heptane-2-carboxylic acid benzyl ester]: in experiment [1], the IC50 worked out at 680 nM.
For `CC1(C)[C@H](C(=O)OCc2ccccc2)N2C(=O)[C@H](OS(C)(=O)=O)[C@H]2S1(=O)=O` [(2S,5R,6S)-6-Methanesulfonyloxy-3,3-dimethyl-4,4,7-trioxo-4lambda*6*-thia-1-aza-bicyclo[3.2.0]heptane-2-carboxylic acid benzyl ester], the IC50 in experiment [2] amounted to 2200 nM; in experiment [3], 130 nM.
As to `CC(C)(C)C(=O)OCOC(=O)[C@@H]1N2C(=O)[C@H](OS(=O)(=O)C(F)(F)F)[C@H]2S(=O)(=O)C1(C)C` [(2S,5R,6S)-3,3-Dimethyl-4,4,7-trioxo-6-trifluoromethanesulfonyloxy-4lambda*6*-thia-1-aza-bicyclo[3.2.0]heptane-2-carboxylic acid 2,2-dimethyl-propionyloxymethyl ester], it took 1000 nM to reach half-maximal inhibition in experiment [1] (IC50).
For `CC(C)(C)C(=O)OCOC(=O)[C@@H]1N2C(=O)[C@H](OS(C)(=O)=O)[C@H]2S(=O)(=O)C1(C)C` [(2S,5R,6S)-6-Methanesulfonyloxy-3,3-dimethyl-4,4,7-trioxo-4lambda*6*-thia-1-aza-bicyclo[3.2.0]heptane-2-carboxylic acid 2,2-dimethyl-propionyloxymethyl ester], the IC50 was found to be 540 nM in experiment [4] and 4300 nM in experiment [1].
With `Cc1ccc(S(=O)(=O)O[C@H]2C(=O)N3[C@@H](C(=O)OCc4ccccc4)C(C)(C)S(=O)(=O)[C@H]23)cc1` [(2S,5R,6S)-3,3-Dimethyl-4,4,7-trioxo-6-(toluene-4-sulfonyloxy)-4lambda*6*-thia-1-aza-bicyclo[3.2.0]heptane-2-carboxylic acid benzyl ester], the 50% inhibitory concentration (IC50) in experiment [2] was 23000 nM; in experiment [3] it was 150 nM.
For the compound `Cc1ccc(S(=O)(=O)O[C@H]2C(=O)N3[C@@H](C(=O)OCOC(=O)C(C)(C)C)C(C)(C)S(=O)(=O)[C@H]23)cc1` [(2S,5R,6S)-3,3-Dimethyl-4,4,7-trioxo-6-(toluene-4-sulfonyloxy)-4lambda*6*-thia-1-aza-bicyclo[3.2.0]heptane-2-carboxylic acid 2,2-dimethyl-propionyloxymethyl ester], the IC50 in experiment [4] was 490 nM; in experiment [1], 2100 nM.
Turning to `CC(C)(C)C(=O)OCOC(=O)[C@@H]1N2C(=O)[C@H](Cl)[C@H]2S(=O)(=O)C1(C)C` [(2S,5R,6S)-6-Chloro-3,3-dimethyl-4,4,7-trioxo-4lambda*6*-thia-1-aza-bicyclo[3.2.0]heptane-2-carboxylic acid 2,2-dimethyl-propionyloxymethyl ester], the IC50 in experiment [2] worked out at 280000 nM; in experiment [3] it was 220000 nM.

A word on the IC50: it is the concentration that inhibits the measured activity by half. Lower therefore signals greater potency.
